Results reported in paper PMC6906431, “Selective small molecule PARG inhibitor causes replication fork stalling and cancer cell death” (Nature Communications, 2019).

Columns and labels:
Human PARG = target: T1, Human PARG (Homo sapiens, UniProt Q86W56); assay: Gel-based PARG activity assay; type: biochemical; conditions: for inhibition at 0.0488281 µM: [L] 0.0488281 uM; for inhibition at 0.0976562 µM: [L] 0.0976562 uM; for inhibition at 0.195312 µM: [L] 0.195312 uM; for inhibition at 0.390625 µM: [L] 0.390625 uM; for inhibition at 0.78125 µM: [L] 0.78125 uM; for inhibition at 1.5625 µM: [L] 1.5625 uM; for inhibition at 3.125 µM: [L] 3.125 uM; for inhibition at 6.25 µM: [L] 6.25 uM; for inhibition at 12.5 µM: [L] 12.5 uM; for inhibition at 25 µM: [L] 25 uM; for inhibition at 50 µM: [L] 50 uM; for IC50: hPARG 1 nM, PARylated PARP1C 500 nM, 30 min
T1 construct: The human PARG (hPARG) catalytic domain (residues 389–976) was cloned in pET28a (Novagen); His-tag (N); made in house; host or cells: E. coli Rosetta
T1 sequence (Q86W56 389-976): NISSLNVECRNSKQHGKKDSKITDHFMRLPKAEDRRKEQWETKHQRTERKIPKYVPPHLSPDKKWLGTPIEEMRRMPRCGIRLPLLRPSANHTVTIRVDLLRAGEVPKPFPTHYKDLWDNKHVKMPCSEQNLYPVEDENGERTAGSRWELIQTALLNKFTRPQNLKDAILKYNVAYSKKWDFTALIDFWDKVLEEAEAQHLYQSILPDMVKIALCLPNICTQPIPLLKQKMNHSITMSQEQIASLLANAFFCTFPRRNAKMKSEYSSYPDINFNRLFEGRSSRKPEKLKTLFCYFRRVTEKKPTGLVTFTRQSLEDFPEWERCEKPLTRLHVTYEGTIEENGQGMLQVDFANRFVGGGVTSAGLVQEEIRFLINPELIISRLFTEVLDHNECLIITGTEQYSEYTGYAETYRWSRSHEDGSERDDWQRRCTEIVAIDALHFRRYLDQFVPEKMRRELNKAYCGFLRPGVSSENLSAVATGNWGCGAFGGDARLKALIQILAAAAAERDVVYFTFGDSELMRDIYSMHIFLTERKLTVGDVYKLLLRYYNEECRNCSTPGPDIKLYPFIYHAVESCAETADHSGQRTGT
Method: PARP1C (2 μM) is enzymatically auto-modified in a reaction containing the PARP1 DBD (2 μM), a 24 mer nicked DNA oligo (2 μM), and NAD^+ (300 μM) for 1 h at 37 °C, as described previously. Human PARG^389–976 (1 nM) was pre-incubated with compounds for 1 h at room temperature. The reaction was initiated by the addition of PARylated PARP1 (final concentration of 500 nM) and quenched after 30 min incubation at room temperature by adding SDS-PAGE sample buffer. The gel was visualized by sypro-ruby staining[18] and the retained PARylated PARP1C species were quantified using ImageJ[59]. PARylated PARP1C that migrates slower than unmodified PARP1C was quantified. […] The IC50 values were determined by fitting the dose-response data for each compound to a four-parameter logistic equation using SigmaPlot (Systat Software Inc.).
To test the specificity of JA2131, human PARG^389–976 (1 nM) was pre-incubated with JA2131 (5, 10, and 20 μM) in the presence and absence of 0.1% Triton-X 100 or 0.1 mg/ml BSA for 1 h at room temperature. The reaction was initiated, quenched, visualized, and quantified as described above. […]
PARG activity assay. […]
PARP1 (500 nM). The reaction was quenched after a 30 -minu te in cu ba tion a t roo m te mpe ra tu re by adding SDS-PA GE sa mp le bu f fe r. PARylated PARP1C runs as a smear on SDS -PAGE that is reduced to a single band by PARG treatment. […]
2). (b) Qu an t if ica t ion o f the dose-response PARG inhibition by JA2 -3 using the gel-based PARG activity assay. hPARG (1 nM) was preincubated with increasing concentrations (0.032 – 1 µM) of JA2-3 f o r 1 hour at room temperature before PARylated PARP1C (500 nM) was added. The reaction was quenched after a 30-minu te incubation at room temperature. PARylated PARP1C migrates slower than unmodified PARP1C and was quantified using ImageJ. […] The rate of the PARG-dependent signal loss in the TR-FRET PAR turnover assay is not equivalent to the steady-state rate of PAR turnover, because the TR-FRET assay can’t detect signal loss until the length of PAR chains become shorter than 7 ADP-ribose units. Therefore, we used the gel-based PARG activity assay to accurately determine the IC50 values throughout the manuscript .

rat PARG = target: T2, rat PARG (Rattus norvegicus, UniProt Q9QYM2); assay: TR-FRET PAR turnover assay (HTS and dose-response); type: biochemical; conditions: for IC50: dose-response, rat PARG 12.5 nM, read-out: Estimated IC50; for TR-FRET: 6.7 μM compound
T2 construct: The catalytic domain of rat PARG (residues 385–972) was purified as described previously; made in house
T2 sequence (Q9QYM2 385-972): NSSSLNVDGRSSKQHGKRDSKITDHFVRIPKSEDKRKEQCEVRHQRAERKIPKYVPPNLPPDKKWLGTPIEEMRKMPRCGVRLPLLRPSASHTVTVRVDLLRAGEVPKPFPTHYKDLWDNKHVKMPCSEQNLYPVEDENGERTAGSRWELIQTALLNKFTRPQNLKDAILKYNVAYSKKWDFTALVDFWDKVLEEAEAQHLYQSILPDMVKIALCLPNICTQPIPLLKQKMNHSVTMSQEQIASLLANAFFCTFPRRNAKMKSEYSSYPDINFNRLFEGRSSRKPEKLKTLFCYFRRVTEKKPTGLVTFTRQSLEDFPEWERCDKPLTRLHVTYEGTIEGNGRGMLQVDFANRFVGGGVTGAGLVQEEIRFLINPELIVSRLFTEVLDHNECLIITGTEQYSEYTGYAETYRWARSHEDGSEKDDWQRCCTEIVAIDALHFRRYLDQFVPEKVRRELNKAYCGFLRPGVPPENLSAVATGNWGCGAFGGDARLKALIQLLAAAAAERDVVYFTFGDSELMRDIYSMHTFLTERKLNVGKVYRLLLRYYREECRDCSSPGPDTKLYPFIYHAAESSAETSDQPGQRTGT
From the text: Importantly, PARG enzymatic function can be required for tumorigenesis. Therefore, we sought to identify a selective PARG inhibitor through our robust PARG enzyme kinetic assay, which quantitatively monitors real-time PAR-mediated PARP1-XRCC1 interactions and disassembly in a multi-well format. A strong TR-FRET signal was generated upon assembly of the Tb^3+-chelated XRCC1 (FRET donor) with PARylated PARP1, which incorporates fluorescein-labeled ADP-ribose moieties into PAR chains (FRET acceptor). The addition of PARG caused a time-dependent loss of the TR-FRET signal by reversing PARylation and disassembling the PARP1-XRCC1 complex (Supplementary Fig. 1)[37].
For a high-throughput screening (HTS) of PARG inhibitors, we developed a high-throughput PARG activity assay using the TR-FRET system (a manuscript describing the details of this assay will be published elsewhere). Briefly, the fluorescein molecule (FITC) was enzymatically incorporated into PARP1 in a reaction containing PARP1C (2 μM), the PARP1 DBD (2 μM), a 24 mer nicked DNA oligo (2 μM), and a mixture of unlabeled NAD^+ (Sigma) and FITC-NAD^+ (Trevigen) substrates (total NAD^+ concentration of 100 μM). After incubation for 1 h at 37 °C, PARylated PARP1 was desalted using a PD-10 desalting column (GE healthcare) in a buffer containing 25 mM Tris-HCl (pH 7.5), 50 mM NaCl, and 0.01% NP-40 and used as the FRET acceptor. The biotin-tagged BRCT1 domain of XRCC1 (BRCT1, 5 nM) was conjugated with an equimolar concentration of Tb^3+-chelated streptavidin (Life Technologies) in TR-FRET assay buffer (FRET donor). […] The reaction was started by the addition of the FRET pair of FITC-labeled PARP1 (42 nM) and Tb^3+-BRCT1 (5 nM). The TR-FRET signal was subsequently monitored for 60 min.
Small molecule inhibitors of PARG were identified by high-throughput screening (HTS) using the TR-FRET PAR turnover assay. Compounds (final concentration of 6.7 μM) from the NCI Diversity Set II library (1990 compounds) were pre dispensed into black polystyrene 384-well plates (Corning) using a Hummingbird liquid handler (Digilab). Then, 10 μl of rat PARG^385–972 (12.5 nM and 25 nM) were subsequently dispensed into plates, using a multi-drop combi nL reagent dispenser (Thermo Scientific) and incubated with compounds for 1 h at 4 °C. The reaction was initiated by the addition of 20 μl of the premixed FRET pair of FITC-labeled PARP1 (42 nM) and Tb^3+-BRCT1 (5 nM), and the TR-FRET signal was monitored every 4 min for 40 min (11 data points). Hits were selected by visually comparing the rate of the TR-FRET signal decrease in each well to that of negative control reactions containing DMSO (Fig. 1b and see Text for details). The HTS was performed at the High-Throughput Screening Core (HTSC) at Washington University School of Medicine.

A172 glioblastoma cells = assay: Sulforhodamine B (SRB) cytotoxicity assay; conditions: 72 h
Method: Normalized % viabilities are plotted against log concentration. Error bars show the percent coefficient of variation. […] Mann-Whitney test was used to generate the p-value. The DNA spread assay is the representation of two independently repeated experiments. Source Data are provided as a Source Data file.
Cells were plated in 96-well plates, treated as designated in reduced 5% FBS and fixed with trichloroacetic acid after 72 h, as previously described by[43]. […] Colorimetric or fluorescence analysis was performed in a FlexStation 3, using SoftMax Pro 7.0, Molecular Devices. Normalized graphs were generated with Prism 8 software, non-linear 4-parameter data fitting was performed for IC50 calculation.

Cn1c(=O)c2[nH]c(SCCN3CCOCC3)nc2n(C)c1=O [JA2120]
potency difference JA2131 (6´-thiocarbonyl) vs JA2120 (6´-carbonyl) (Human PARG): more than 50 fold | inhibition at 0.0488281 µM (Human PARG): 6.05% | inhibition at 0.0976562 µM (Human PARG): 5.87% | inhibition at 0.195312 µM (Human PARG): 7.21% | inhibition at 0.390625 µM (Human PARG): 10.4% | inhibition at 0.78125 µM (Human PARG): 16.2% | inhibition at 1.5625 µM (Human PARG): 24.6% | inhibition at 3.125 µM (Human PARG): 25.7% | inhibition at 6.25 µM (Human PARG): 24.7% | inhibition at 12.5 µM (Human PARG): 33.9% | inhibition at 25 µM (Human PARG): 45.5% | inhibition at 50 µM (Human PARG): 67% | inhibition at 100 µM (Human PARG; [L] 100 uM): 88.3% | IC50 (Human PARG): 25.7 µM

O=C1C=CC(=Nc2cccc3c(N=C4C=CC(=O)O4)cccc23)O1 [JA1-3]
IC50 (rat PARG): ~0.4 µM

Cn1c(=S)c2nc(SCCN3CCCC3)[nH]c2n(C)c1=O [JA2-4]
inhibition at 0.0488281 µM (Human PARG): 2.01% | inhibition at 0.0976562 µM (Human PARG): 4.3% | inhibition at 0.195312 µM (Human PARG): 25.2% | inhibition at 0.390625 µM (Human PARG): 34.9% | inhibition at 0.78125 µM (Human PARG): 48.4% | inhibition at 1.5625 µM (Human PARG): 67% | inhibition at 3.125 µM (Human PARG): 70.1% | inhibition at 6.25 µM (Human PARG): 78.4% | inhibition at 12.5 µM (Human PARG): 87.5% | inhibition at 25 µM (Human PARG): 93.6% | inhibition at 50 µM (Human PARG): 100% | IC50 (Human PARG): 0.9 µM

O=c1[nH]c2[nH]c(=S)[nH]c(=S)c2[nH]1 [JA2-3]
TR-FRET (rat PARG; 12.5 nM PARG, 0 min): 1.1077 | TR-FRET (rat PARG; 12.5 nM PARG, 4 min): 1.1706 | TR-FRET (rat PARG; 12.5 nM PARG, 8 min): 1.1753 | TR-FRET (rat PARG; 12.5 nM PARG, 12 min): 1.0984 | TR-FRET (rat PARG; 12.5 nM PARG, 16 min): 1.1414 | TR-FRET (rat PARG; 12.5 nM PARG, 20 min): 1.0328 | TR-FRET (rat PARG; 12.5 nM PARG, 24 min): 0.9368 | TR-FRET (rat PARG; 12.5 nM PARG, 28 min): 0.9375 | TR-FRET (rat PARG; 12.5 nM PARG, 32 min): 0.9636 | TR-FRET (rat PARG; 12.5 nM PARG, 36 min): 0.9240 | TR-FRET (rat PARG; 12.5 nM PARG, 40 min): 0.9660 | TR-FRET (rat PARG; 25 nM PARG, 0 min): 1.1716 | TR-FRET (rat PARG; 25 nM PARG, 4 min): 1.2418 | TR-FRET (rat PARG; 25 nM PARG, 8 min): 1.1876 | TR-FRET (rat PARG; 25 nM PARG, 12 min): 1.1061 | TR-FRET (rat PARG; 25 nM PARG, 16 min): 1.0537 | TR-FRET (rat PARG; 25 nM PARG, 20 min): 1.0170 | TR-FRET (rat PARG; 25 nM PARG, 24 min): 0.9403 | TR-FRET (rat PARG; 25 nM PARG, 28 min): 0.9903 | TR-FRET (rat PARG; 25 nM PARG, 32 min): 1.0366 | TR-FRET (rat PARG; 25 nM PARG, 36 min): 0.9358 | TR-FRET (rat PARG; 25 nM PARG, 40 min): 1.0455 | inhibition at 0.0001 µM (Human PARG; 0.5 h, [L] 1.00E-04 uM): 0% | inhibition at 0.03125 µM (Human PARG; [L] 0.03125 uM): 17% | inhibition at 0.0625 µM (Human PARG; [L] 0.0625 uM): 35.9% | inhibition at 0.125 µM (Human PARG; [L] 0.125 uM): 56.7% | inhibition at 0.25 µM (Human PARG; [L] 0.25 uM): 74.4% | inhibition at 0.5 µM (Human PARG; [L] 0.5 uM): 88% | inhibition at 1 µM (Human PARG; [L] 1 uM): 103% | IC50 (Human PARG): 0.1 µM

NC(=O)NO [Hydroxyurea]
IC50 (A172 glioblastoma cells): 381 ± 117 µM

CCCOCN1C(=O)C=CC1=O [JA1-1]
IC50 (rat PARG): 1 to 2 µM

Cn1c(=O)c2[nH]c(SCCN3CCOCC3)nc2n(C)c1=S [JA2-5]
inhibition at 0.0488281 µM (Human PARG): 6.3% | inhibition at 0.0976562 µM (Human PARG): 19.6% | inhibition at 0.195312 µM (Human PARG): 28.3% | inhibition at 0.390625 µM (Human PARG): 27.3% | inhibition at 0.78125 µM (Human PARG): 35.2% | inhibition at 1.5625 µM (Human PARG): 71% | inhibition at 3.125 µM (Human PARG): 81.9% | inhibition at 6.25 µM (Human PARG): 87.9% | inhibition at 12.5 µM (Human PARG): 89.1% | inhibition at 25 µM (Human PARG): 99.8% | inhibition at 50 µM (Human PARG): 104% | IC50 (Human PARG): 1 µM
